{"source": "patent US20210002712A1", "about": "“PHOSPHATIDIC ACID SENSOR” (NATIONAL UNIVERSITY CORPORATION CHIBA UNIVERSITY, priority 2019, published 2021)", "key": {"PLD2": {"target": "PLD2 (Homo sapiens, UniProt O14939)", "sequence (O14939 whole entry)": "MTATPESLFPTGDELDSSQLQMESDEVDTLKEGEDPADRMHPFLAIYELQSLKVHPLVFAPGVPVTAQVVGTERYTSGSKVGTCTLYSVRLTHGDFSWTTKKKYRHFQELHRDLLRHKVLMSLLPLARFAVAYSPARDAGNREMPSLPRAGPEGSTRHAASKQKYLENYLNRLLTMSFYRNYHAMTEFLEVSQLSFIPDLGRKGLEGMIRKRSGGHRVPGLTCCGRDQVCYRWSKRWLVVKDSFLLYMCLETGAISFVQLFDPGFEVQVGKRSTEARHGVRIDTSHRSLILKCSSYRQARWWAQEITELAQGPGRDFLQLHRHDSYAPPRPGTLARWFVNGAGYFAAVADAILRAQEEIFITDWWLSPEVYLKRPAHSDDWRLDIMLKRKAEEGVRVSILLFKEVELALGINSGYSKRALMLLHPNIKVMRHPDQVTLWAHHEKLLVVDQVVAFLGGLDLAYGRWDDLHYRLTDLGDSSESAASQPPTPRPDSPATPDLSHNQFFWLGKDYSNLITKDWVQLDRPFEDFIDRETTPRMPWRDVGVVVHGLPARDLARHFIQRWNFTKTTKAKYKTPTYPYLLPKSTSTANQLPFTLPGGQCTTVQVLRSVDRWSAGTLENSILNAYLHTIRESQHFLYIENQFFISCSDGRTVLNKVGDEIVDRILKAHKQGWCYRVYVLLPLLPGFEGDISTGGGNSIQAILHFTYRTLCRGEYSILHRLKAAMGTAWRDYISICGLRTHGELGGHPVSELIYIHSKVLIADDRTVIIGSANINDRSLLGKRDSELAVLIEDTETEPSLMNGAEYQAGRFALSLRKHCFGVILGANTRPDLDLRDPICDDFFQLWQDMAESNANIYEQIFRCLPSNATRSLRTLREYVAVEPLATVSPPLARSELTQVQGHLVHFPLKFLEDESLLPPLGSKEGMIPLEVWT", "details": "COS-7 cells, 750 nM for 4 h", "quoted_text": "EGFP-PLD2 was coexpressed with either the DsRed monomer alone or DsRed monomer α-Syn-N in COS-7 cells as indicated. After 24 h of transfection, the cells were incubated with 750 nM FIPI in growth medium for 4 h and then fixed and imaged. […] The localization of EGFP-PLD2-WT and DsRed monomer α-Syn-N was quantified using ImageJ software. COS-7 cells were grown and transfected as described in the above section. […] The cells were then fixed in 4% paraformaldehyde. The coverslips were mounted using Vectashield. Fluorescence images were acquired using an Olympus FV1000-D (IX81) confocal laser scanning microscope. GFP fluorescence was excited at 488 nm, and DsRed fluorescence was excited at 543 nm. Images were acquired using FV-10 ASW software."}, "EGFP-DGKγ": {"target": "T1, EGFP-DGKγ (Homo sapiens, UniProt P49619)", "T1 construct": "expressed in transfected cells; host or cells: COS-7", "T1 sequence (P49619 whole entry)": "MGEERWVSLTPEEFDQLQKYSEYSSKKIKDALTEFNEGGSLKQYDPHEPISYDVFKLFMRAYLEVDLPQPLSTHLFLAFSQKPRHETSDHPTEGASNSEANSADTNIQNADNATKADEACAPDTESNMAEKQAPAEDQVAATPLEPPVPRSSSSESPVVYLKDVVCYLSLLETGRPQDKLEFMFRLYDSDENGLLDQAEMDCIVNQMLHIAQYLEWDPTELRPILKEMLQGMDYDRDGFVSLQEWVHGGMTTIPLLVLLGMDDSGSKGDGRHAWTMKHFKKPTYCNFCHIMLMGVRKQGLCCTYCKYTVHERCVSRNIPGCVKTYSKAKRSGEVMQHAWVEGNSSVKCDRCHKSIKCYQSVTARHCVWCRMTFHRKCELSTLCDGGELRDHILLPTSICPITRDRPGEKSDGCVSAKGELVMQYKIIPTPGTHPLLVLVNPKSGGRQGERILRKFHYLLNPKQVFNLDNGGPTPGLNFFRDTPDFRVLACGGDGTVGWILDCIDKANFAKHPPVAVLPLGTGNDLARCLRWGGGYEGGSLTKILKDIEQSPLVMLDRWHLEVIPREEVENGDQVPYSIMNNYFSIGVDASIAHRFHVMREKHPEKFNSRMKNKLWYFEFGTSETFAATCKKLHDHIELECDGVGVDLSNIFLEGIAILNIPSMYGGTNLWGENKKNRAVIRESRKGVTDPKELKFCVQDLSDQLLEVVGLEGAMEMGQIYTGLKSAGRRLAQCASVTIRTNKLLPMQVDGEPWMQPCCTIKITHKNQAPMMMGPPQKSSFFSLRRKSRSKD", "assay": "PMA-induced translocation of EGFP-DGKγ in COS-7 cells", "type": "cell-based", "details": "1 μM PMA for 30 min", "protocol": "FIGS. 19 and 20. […] Representative data from three independent experiments are shown. Scale bars, 20 μm. FIG. 20.\nCOS-7 cells were maintained in Dulbecco's modified Eagle's medium supplemented with 10% fetal bovine serum, 100 units/ml penicillin, and 100 μg/ml streptomycin at 37° C. in an atmosphere containing 5% CO2. Cells were transiently transfected using PolyFect reagent as described by the manufacturer.\nThe cells were then fixed in 4% paraformaldehyde. The coverslips were mounted using Vectashield. […] Images were acquired using FV-10 ASW software."}, "[1]": {"assay": "Liposome cosedimentation assay, 18:1/18:1-PA liposomes", "type": "binding", "details": "6×His-SUMO-tagged protein 2.5 μM; PA 150 μM", "protocol": "FIG. 1. A schematic architecture of α-Syn and its deletion mutants. FIG. 2. The purified SUMO-tagged-α-Syn and its deletion mutant protein (2.5 μM) were incubated with 18:1/18:1-PA or 18:1/18:1-PS liposomes (PA or […]: 150 μM) and then separated by ultracentrifugation. SDS-PAGE (15%) was performed and separated proteins were stained with Coomassie Brilliant Blue. The positions of α-Syn and its mutants are indicated with arrow heads. The amounts of protein in the supernatant (S) and precipitant (P) were quantified by densitometry using ImageJ software. Binding activity was calculated as the percentage of the precipitate band intensity compared to the total band intensities. Values are presented as the mean±S.D. of four independent experiments. **P<0.01 versus the 18:1/18:1-PS liposome.\nFIG. 3. The purified SUMO-tagged-α-Syn-N protein (2.5 μM) was incubated with control (PC and Chol alone), 16:0/16:0-PA, 16:0/18:1-PA, 18:1/18:1-PA, or 18:0/18:0-PA liposomes (PA: 150 μM) and then separated by ultracentrifugation. SDS-PAGE (15%) was performed and separated proteins were stained with Coomassie Brilliant Blue. The position of α-Syn-N is indicated with an arrow head.\nFIG. 4. The amounts of protein in the supernatant (S) and precipitant (P) were quantified by densitometry using ImageJ software. Binding activity was calculated as the percentage of the precipitate band intensity compared to the total band intensities. Values are presented as the mean±S.D. of three independent experiments. #P<0.05, ##P<0.01, ###P<0.005 versus the 18:1/18:1-PA-liposome, *P<0.05, ***P<0.005 versus the control liposome.\n(§1) FIG. 5. The purified SUMO-tagged-α-Syn protein (0.1 μM) was incubated with 18:1/18:1-PA liposomes of the indicated concentrations (0-20 μM) and then separated by ultracentrifugation. SDS-PAGE (15%) was performed and separated proteins were detected with silver staining. The position of α-Syn-N is indicated with an arrow head.\nFIG. 6. The amounts of protein in the precipitant were quantified by densitometry using ImageJ software. Binding activity was calculated as the percentage of the precipitate band intensity compared to the total band intensities (Input). Values are presented as the mean±S.D. of four independent experiments. The Kd was determined using GraphPad Prism 8 (Dissociation-One phase exponential decay).\nas §1, with “7.” for “5.”, “18:1/18:1-PA, 18:1/18:1-PS, 18:1/18:1-PI(4,5)P2, 18:1/18:1-PE and d18:1/18:1-C1P” for “18:1/18:1-PA”, “(20” for “of the indicated concentrations (0-20”, “(15%) analysis” for “(15%)”\nFIG. 8. The amounts of protein in the precipitant were quantified by densitometry using ImageJ software. The PA binding activity of α-Syn-N was set to 100%. Values are presented as the mean±S.D. of three independent experiments. ***P<0.005 versus 18:1/18:1-PA liposome.\nThe following lipid mixtures were used: the control liposome: Chol (50 mol %) and 16:0/18:1-PC (50 mol %); and the PA liposome: Chol (50 mol %), 16:0/18:1-PC (35 mol %) and each PA species (15 mol %). The combined dried lipid mixture was resuspended in HEPES buffer. Then, the lipid mixture was vortexed for 1 min. Liposome formation was induced by sonication at 75° C. The purified SUMO-tagged α-Syn and its deletion mutants (2.5 μM) were dissolved in HEPES buffer and incubated with the control or PA-containing liposomes at room temperature for 1 h. Then, the samples were centrifuged at 200,000 g at 4° C. for 1 h. The precipitant was dissolved in HEPES buffer. The supernatant and pellet were analyzed by SDS-PAGE followed by Coomassie Brilliant Blue and silver staining. Quantitative densitometry was performed using ImageJ software. Since the lipid forms a bilayer, half of the actual concentration was considered."}}}
{"compound": "O=C(NCCN1CCC(n2c(=O)[nH]c3ccccc32)CC1)c1cc2cc(F)ccc2[nH]1", "note": "[FIPI, 5-fluoro-2-indolyl deschlorohalopemide]", "values": [{"measurement": "effect on colocalization of EGFP-PLD2 and DsRed-α-Syn-N", "setting": "PLD2", "value": "markedly attenuated their colocalization"}]}
{"compound": "CCCCCCCCCCCCCC(=O)O[C@@H]1[C@@H](C)[C@@]2(O)[C@@H](C=C(CO)C[C@]3(O)C(=O)C(C)=C[C@@H]23)[C@@H]2C(C)(C)[C@]12OC(C)=O", "note": "[PMA, phorbol 12-myristate 13-acetate]", "values": [{"measurement": "translocation of EGFP-DGKγ", "setting": "EGFP-DGKγ", "value": "led to the translocation of EGFP-DGKγ from the cytoplasm to the plasma membrane"}]}
{"compound": "α-Syn-C: C-terminal region deletion mutant of α-Syn (Lys96-Ala140), 6×His-SUMO-tagged", "values": [{"measurement": "PA-binding activity (18:1/18:1-PA liposomes)", "setting": "[1]", "value": "failed to show substantial PA-binding activity"}]}
